The record followed here is the SangsterLogP compilation.

Series [1] in a line: method code SF, from DOI: 10.1016/0378-5173(85)90077-8.
Series [2] in a line: method code SF-AS, from DOI: 10.1016/j.arabjc.2011.11.013.
The nature of series [3]: method code SF-AS, from DOI: 10.1016/s0022-5347(24)07568-2, PMID: 4149453. The conditions noted are these: pH 7.5.
The nature of series [4]: method code SF, from DOI: 10.1002/ps.2780350215.
Series [5] is described as follows: method code SF, from PMID: 26783178.
Series [6] can be described thus: method code SF-AS, from DOI: 10.1016/0006-2952(90)90117-4, PMID: 2344368. The conditions noted are these: pH 7.5.
A short description of series [7]: method code SF-AS, from DOI: 10.1016/0378-5173(85)90003-1.
Series [8] is described as follows: method code SF-RC, from DOI: 10.1016/j.bmc.2006.11.022, PMID: 17293116. The conditions noted are these: pH 7.4.
Assay in series [9]: not given
The source holds these as a separate data set.

Assay in series [10]: not given
This is another data set of the same source.

Assay in series [11]: not given
The source holds these as a separate data set.

Assay in series [12]: not given
The source holds these as a separate data set.

Series [13] in a line: method code SF-HPLC, from DOI: 10.1023/a:1016359301852, PMID: 24271710.
Series [14] can be described thus: method code SF-HPLC, from DOI: 10.1023/a:1015956705293, PMID: 3244625.
For series [15] the following is noted: pH 7.4.
Assay in series [16]: not given
This is another data set of the same source.

Assay in series [17]: not given
The source holds these as a separate data set.

Assay in series [18]: not given
This is another data set of the same source.

Series [19] can be described thus: method code SF-HPLC, from DOI: 10.1016/j.ejmech.2003.12.002, PMID: 15051170.

Molecule `CCCCCC(=O)OCC(=O)[C@@]1(O)CC[C@H]2[C@@H]3CCC4=CC(=O)CC[C@]4(C)[C@H]3C(=O)C[C@@]21C` showed a logP in [1] of 3.3.

In turn, `Nc1ccc(C(=O)OCC(=O)Nc2ccc(Cl)cc2C(=O)c2ccccc2)cc1` returned a logP in series [2] of 4.78.

In the case of `CC(C)N1C=CCC(C(=O)OC2CCC3C4CCc5cc(O)ccc5C4CC23C)=C1` (stereo not drawn), the logP amounted to 4.6.

In the case of `CCCCCOC(=O)CC[C@H](NC(=O)c1ccc(N(C)Cc2cnc3nc(N)nc(N)c3n2)cc1)C(=O)OCCCCC`, the logD in series [3] turned out to be 1.33.

As to `C=CCCN1C=CCC(C(=O)OC2CCC3C4CCc5cc(O)ccc5C4CC23C)=C1` (stereo not drawn), the logP amounted to 3.96.

In the case of `Cc1cc(=O)c(C(=O)Nc2ccccc2Cl)c(C)n1CCc1ccccc1`, the logP in [4] was determined as 2.79.

`Cc1ccc(N2C(=O)[C@H](CCCNS(=O)(=O)c3ccc(OC(F)(F)F)cc3)[C@H]2c2ccc(NS(=O)(=O)c3ccc(C)cc3)cc2)cc1` had a logP in [5] of 3.78.

Consider `COc1cccc2c1C(=O)c1c(O)c3c(c(O)c1C2=O)CC(O)(C(C)=O)CC3OC1CC(NC(C)=O)C(O)C(C)O1` (stereo not drawn), for which, in series [6], the logD amounted to 1.85.

In turn, `Cn1nnnc1SCC1=C(C(=O)OCOC(=O)C(C)(C)C)N2C(=O)C(NC(=O)Cc3csc(N)n3)C2SC1` (stereo not drawn) returned a logD in [7] (pH 4.6) of 1.36.

`CNc1ccc(-c2nc3ccc(-c4nc5ccc(Cl)cc5s4)cc3s2)cc1`: in [8], the logD came out at 3.05.

Take `O=C(Nc1ccc2ncnc(Nc3ccc(F)c(Cl)c3)c2c1)c1ccc(I)cc1`: the logP in series [9] is 4.83.

On to `NC(=O)c1ccc2c(ccn2CC(=O)Oc2ccc(-c3ccccc3)cc2)c1`, for which, in series [10], the lipophilicity (logP) was determined as 2.4.

With `C[C@@H]1CC2=CC(=O)CC[C@@H]2[C@H]2CC[C@@]3(C)[C@@H](CC[C@]3(C)O)[C@@H]21`, the logP in series [11] was determined as 3.19.

With `CC1N=C2C3=C(CCC(c4ccccc4)C3)C(C(=O)NCCO)=CN2C1C` (stereo not drawn), the logP in [12] amounted to 2.81.

In turn, `CCc1cccc(CC)c1NC(=O)c1c(C)n(Cc2ccccc2)c(C)cc1=O` gave a logP in series [4] of 2.9.

In turn, `O=C(Cn1ccc2cc(C(=O)O)ccc21)Oc1ccccc1-c1ccccc1` displayed a logP in series [10] of 3.1.

`C#CC1(OC(=O)c2ccn(C)c2)CCC2C3CCC4=CC(=O)CCC4(C)C3CCC21C` (stereo not drawn) gave a lipophilicity (logP) in series [13] of 4.49.

Molecule `CC1N=C2C3=C(CCC(c4ccccc4)C3)C(C(N)=O)=CN2C1C` (stereo not drawn) displayed a logP in series [12] of 3.21.

Regarding `COc1cccc2c1C(=O)c1c(O)c3c(c(O)c1C2=O)CC(O)(C(C)=O)CC3OC1CC(O)C(O)C(C)O1` (stereo not drawn), the logD in series [6] turned out to be 1.34.

In series [14], `C[C@]12CCC(=O)C=C1CC[C@@H]1[C@@H]2[C@@H](O)C[C@@]2(C)[C@H]1CC[C@]2(O)C(=O)COC(=O)CCCCCC(N)=O` returned a logP of 2.3.

Molecule `CNC(=O)C(O)C1(O)CCC2C3CCC4=CC(=O)C=CC4(C)C3C(O)CC21C` (stereo not drawn) had a log distribution coefficient (logD) in [15] of 1.

Turning to `C#C[C@]1(O)CC[C@H]2[C@@H]3CCC4=CC(=O)CC[C@@H]4[C@H]3CC[C@@]21C`, the logP in series [13] turned out to be 2.97.

On to `COc1ccc(CN2CCN(c3ccccc3)CC2)c(OC)c1OC`, for which, in [16], the logP was determined as 3.

In turn, `Cc1cccc2c1OP(=O)(OCC1OC(n3cc(/C=C/Br)c(=O)[nH]c3=O)CC1OC(=O)C1CCCN1)OC2` (stereo not drawn) displayed a logP in series [17] of -0.4.

Turning to `Cc1cn2c(n1)C1CC(c3ccccc3)CCC1C(C(=O)N(C)C)=C2` (stereo not drawn), in [12], the logP is 2.77.

`O=C(CNc1ccc(O)cc1)Nc1ccc(Cl)cc1C(=O)c1ccccc1` had a logP in [2] of 3.5.

Molecule `CNc1ccc(-c2nc3ccc(-c4nc5ccccc5s4)cc3s2)cc1` gave a logD in series [8] of 2.34.

In the case of `CCc1ccc(S(=O)(=O)NCCC[C@H]2C(=O)N(c3ccc(C)cc3)[C@@H]2c2ccc(NS(=O)(=O)c3ccc(C)cc3)cc2)cc1`, in [5], the logP came to 3.9.

With `Fc1ccc(C(c2ccc(F)cc2)N2CCN(C/C=C/c3ccccc3)CC2)cc1`, the lipophilicity (logP) in series [16] was 4.83.

The molecule `C#CC1(O)CC[C@H]2[C@@H]3CCC4=CC(=O)CC[C@]4(C)[C@H]3CC[C@@]21C` (stereo in doubt) showed a logP in series [13] of 3.11.

Molecule `COC(=O)CCC(NC(=O)c1ccc(N(C)Cc2cnc3nc(N)nc(N)c3n2)cc1)C(=O)OC` (stereo not drawn) gave a pH-dependent lipophilicity (logD) in series [3] of 0.54.

In [18], `Cc1ccc(C(=O)CCCN2CCC(O)(c3ccc(Cl)cc3)CC2)cc1` came in with a logP of 3.44.

In [19], `COC(=O)C(C)NP(=O)(OCC1C=CC(n2cc(C)c(=O)[nH]c2=O)O1)Oc1ccccc1Br` (stereo not drawn) displayed a logP of 0.95.

`C[C@@H]1C[C@@]2(C)[C@@H](CC[C@@H]3[C@@H]2CC[C@]2(C)[C@@H](O)CC[C@@H]32)CC1=O` showed a logP in [11] of 3.99.

Turning to `CC1CN(C2C=CC(COP(=O)(NC(C)C(=O)O)Oc3ccc(Br)cc3Cl)O2)C(=O)NC1=O` (stereo not drawn), the logP in [19] is 1.81.

Consider `O=C(CNc1ccccc1)Nc1ccc(Cl)cc1C(=O)c1ccccc1`, for which the logP in [2] was 4.24.

As to `C[C@]12CCC(=O)C=C1CC[C@@H]1[C@@H]2[C@@H](O)C[C@@]2(C)[C@H]1CC[C@]2(O)C(=O)COC(=O)CCC(N)=O`, the log partition coefficient (logP) in [14] worked out at 1.43.

As to `COC(=O)CCCCCC(=O)OCC(=O)C1(O)CCC2C3CCC4=CC(=O)CCC4(C)C3C(O)CC21C` (stereo not drawn), the lipophilicity (logP) in series [14] came to 3.7.

As to `COc1cccc2c1C(=O)c1c(O)c3c(c(O)c1C2=O)C[C@@](O)(C(C)=O)C[C@@H]3O[C@@H]1C[C@@H](N(C)C)[C@@H](O)[C@@H](C)O1`, the logD in [6] is 1.37.

The molecule `C[C@]12C=CC(=O)C=C1CC[C@@H]1[C@@H]2[C@@H](O)C[C@@]2(C)[C@H]1CC[C@]2(O)[C@@H](O)C(=O)NCc1ccccc1` came in with a pH-dependent lipophilicity (logD) in series [15] of 1.51.

As for `COc1ccc(C(=O)CCCN2CCC(O)(c3ccc(Cl)cc3)CC2)cc1`, the log partition coefficient (logP) in series [18] is 2.9.

As for `CN(C)c1ccc(-c2nc3ccc(-c4nc5ccc(F)cc5s4)cc3s2)cc1`, the logD in series [8] stood at 2.99.

In the case of `O=C(Nc1ccc2ncnc(Nc3ccc(F)c(Cl)c3)c2c1)c1ccc(F)cc1`, the logP in [9] was determined as 4.55.

As to `O=C(Nc1ccc2ncnc(Nc3ccc(F)c(Cl)c3)c2c1)c1cccc(I)c1`, in series [9], the log partition coefficient (logP) is 5.58.

`CC(CCN1CCC(O)(c2ccc(Cl)cc2)CC1)c1ccc(F)cc1` (stereo not drawn): the log partition coefficient (logP) in series [18] is 4.02.

Take `CC(=O)OCC1=C(C(=O)OCOC(=O)C(C)(C)C)N2C(=O)C(NC(=O)Cc3cccs3)C2SC1` (stereo not drawn): the logD in series [7] (pH 4.6) is 1.57.

Molecule `CCCNC(=O)[C@H](O)[C@@]1(O)CC[C@H]2[C@@H]3CCC4=CC(=O)C=C[C@]4(C)[C@H]3[C@@H](O)C[C@@]21C` yielded a pH-dependent lipophilicity (logD) in [15] of 1.43.

In series [3], `CCCCCCCCOC(=O)CCC(NC(=O)c1ccc(N(C)Cc2cnc3nc(N)nc(N)c3n2)cc1)C(=O)OCCCCCCCC` (stereo not drawn) returned a logD of 2.16.

In series [4], `Cc1cc(=O)c(C(=O)Nc2ccccc2)c(C)n1CCc1ccccc1` yielded a logP of 2.04.

In [10], `CCCCCCCCc1ccc(OC(=O)Cn2ccc3cc(C(=O)O)ccc32)cc1` registered a lipophilicity (logP) of 6.3.

For the molecule `Cn1nnnc1SCC1=C(C(=O)OCOC(=O)C(C)(C)C)N2C(=O)C(NC(=O)C(O)c3ccccc3)C2SC1` (stereo not drawn), the logD in series [7] (pH 4.5) is 0.85.

On to `Cc1cccc2c1OP(=O)(OCC1OC(n3cc(/C=C/Br)c(=O)[nH]c3=O)CC1OC(=O)C(N)C(C)C)OC2` (stereo not drawn), for which the lipophilicity (logP) in [17] was -0.1.

In turn, `CN1C=CCC(C(=O)O[C@H]2CC[C@H]3[C@@H]4CCc5cc(O)ccc5[C@H]4CC[C@]23C)=C1` gave a logP of 4.52.

`Cc1ccc(N2C(=O)C(CCCNS(=O)(=O)c3ccc(OC(F)(F)F)cc3)C2c2ccc(NS(C)(=O)=O)cc2)cc1` (stereo not drawn) registered a log partition coefficient (logP) in series [5] of 3.45.

In turn, `COC(=O)C(C)NP(=O)(OCC1C=CC(n2cc(C)c(=O)[nH]c2=O)O1)Oc1c(OC)cccc1OC` (stereo not drawn) gave a logP in [19] of 0.4.

In series [16], `CCCCOc1cc(C(=O)NCCN(CC)CC)c2ccccc2n1` showed a log partition coefficient (logP) of 4.19.

Turning to `CO[C@H]1CC[C@H]2[C@@H]3CC[C@H]4CC(=O)[C@H](C)C[C@]4(C)[C@H]3CC[C@]12C`, the lipophilicity (logP) in [11] turned out to be 5.43.

Consider `Cc1cccc2c1OP(=O)(OCC1OC(n3cc(C=CBr)c(=O)[nH]c3=O)CC1OC(=O)C(C)C)OC2` (stereo not drawn), for which, in [17], the log partition coefficient (logP) was 2.4.
